Reference: article PMC8124228, “New Hybrids Based on Curcumin and Resveratrol: Synthesis, Cytotoxicity and Antiproliferative Activity against Colorectal Cancer Cells” (Molecules, 2021)
Read-outs that look alike come from different tables or passages of the source.

How the values were obtained:
[1] = test system: SW480 human colon adenocarcinoma cells; experiment: Sulforhodamine B (SRB) cytotoxicity assay, SW480; format: cell-based; settings: for SI (selectivity index): IC50 CHO-K1 / IC50 SW480; for IC50: Homo sapiens, SRB, mean ± SE
Description: (§1) To determine the cytotoxic effect of the synthesized hybrids, they were evaluated against SW480 human colon adenocarcinoma cells, its metastatic derivative SW620 and the non-malignant CHO-K1 cell line, through the sulforhodamine B assay. In this experiment, 5-FU was also included as the reference drug, as well as the parental subunits (curcumin and resveratrol) and the equimolar mixture of these. Cytotoxicity was reported as 50% inhibitory concentration (IC50 values).
(§2) Biological assays were performed using an adenocarcinoma colon cancer cell line (SW480), its metastatic derivative (SW620) and non-malignant cells (CHO-K1). These were obtained from The European Collection of Authenticated Cell Cultures (ECACC, England) and maintained in Dulbecco’s Modified Eagle Medium, supplemented with 10% heat-inactivated (56 °C) horse serum, 1% penicillin/streptomycin and 1% non-essential amino acids (Gibco Invitrogen, Carlsbad, USA). For all experiments, horse serum was reduced to 3%, and the medium was supplemented with […], 5 ng/mL selenium and […] (ITS-defined medium; Gibco, Invitrogen, Carlsbad, CA, USA).
(§3) Cytotoxicity of the synthesized hybrids, lead and reference compounds was evaluated through Sulforhodamine B (SRB) assay, a colorimetric test that is based on staining of total cellular protein of adherent cells. Cells were seeded to a final density of 20,000 cells/well in 96-well tissue culture plates and incubated at 37 °C in a humidified atmosphere at 5% CO2. All cultures were allowed to grow for 24 h, and afterward they were treated with DMSO (vehicle control 1%) or increasing concentrations (0.01–200 µM) of the synthesized hybrids, as well as curcumin and resveratrol (lead compounds), the equimolar mixture of these and 5-fluorouracil (5-FU; the standard drug). After treatment, cells were fixed with trichloroacetic acid (50% v/v) (MERCK) for a period of 1 h at 4 °C. Cell proteins were determined by staining with 0.4% (w/v) SRB (Sigma-Aldrich, United States), and then they were washed with 1% acetic acid for the removal of unbound SRB and left for air-drying. Protein bound SRB was solubilized in 10 mM Tris-base and the absorbance was measured at 492 nm in a microplate reader (Mindray MR-96A). All experiments were performed at least in triplicate.

[2] = test system: SW620 cells (metastatic derivative of SW480); experiment: Sulforhodamine B (SRB) cytotoxicity assay, SW620; format: cell-based, human; settings: for SI (selectivity index): IC50 CHO-K1 / IC50 SW620; for IC50: Homo sapiens, SW-620, SRB, mean ± SE
Description: as §1, §2, §3

[3] = test system: non-malignant CHO-K1 cell line; experiment: Sulforhodamine B (SRB) cytotoxicity assay, non-malignant cells; format: cell-based; settings: Cricetulus griseus, mean ± SE
Description: as §1, §2, §3

SW620 cell line = experiment: Antiproliferative activity (SRB, 2-8 days), SW620; format: cell-based, human; settings: for viability at 10 µM / viability at 160 µM: Homo sapiens, vehicle control = 100%, read-out: Viability (%) ± SE; for viability at 10 µM: SW620, 10 µM; for viability at 160 µM: SW620, 160 µM
Description: With the aim of testing the antiproliferative effect of the most cytotoxic and selective hybrids (3e and 3i for SW480 and 3a, 3e and 3k for SW620), they were analyzed through a longer period. According to the results in comparison with the control, it was observed that the activity was time- and concentration-dependent, as evidenced by the decrease in cell viability in the highest concentrations (Table 2). […] Similar results were presented in a previous investigation by Herrera-R et al. (2018), reporting the antiproliferative effect and morphological changes in SW480 cells after treatment with different hybrids using a stilbene moiety, which highlights the potential of this scaffold in the approach to design molecules with potential activity against CRC.
Briefly, cells were seeded to a final density of 2500 cells/well in 96-well tissue culture plates and incubated in the same conditions described for cytotoxicity. […] Culture media was replaced every 48 h. After each incubation time, cells were fixed, stained and read as previously described for this technique.

Row | melting point [°C] | SMILES | SI (selectivity index) ([1]; 24 h) | SI (selectivity index) ([1]; 48 h) | SI (selectivity index) ([2]; 24 h) | SI (selectivity index) ([2]; 48 h) | IC50 ([3]; 24 h) [µM] | IC50 ([3]; 48 h) [µM] | viability at 10 µM (SW620 cell line; SW-620, 48 h, day 2) [%] | viability at 160 µM (SW620 cell line; SW-620, 48 h, day 2) [%] | viability at 10 µM (SW620 cell line; SW-620, 96 h, day 4) [%] | viability at 160 µM (SW620 cell line; SW-620, 96 h, day 4) [%] | viability at 10 µM (SW620 cell line; SW-620, 144 h, day 6) [%] | viability at 160 µM (SW620 cell line; SW-620, 144 h, day 6) [%] | viability at 10 µM (SW620 cell line; SW-620, 192 h, day 8) [%] | viability at 160 µM (SW620 cell line; SW-620, 192 h, day 8) [%] | IC50 ([1]; SW480, 24 h, 24 h) [µM] | IC50 ([1]; SW480, 48 h, 48 h) [µM] | IC50 ([2]; 24 h) [µM] | IC50 ([2]; 48 h) [µM] | reduction in viability (SW620 cell line; SW620, after two days of treatment, concentrations higher than 10 µM)
1 | 119 to 120 | COc1cc(/C=C/C(=O)c2ccc(/C=C/c3ccc(O)cc3)cc2)ccc1O [Hybrid 3a, (E)-3-(4-Hydroxy-3-methoxyphenyl)-1-(4-((E)-4-hydroxystyryl)phenyl)prop-2-en-1-one] | 1.28 | 0.54 | 0.74 |  | 122 ± 15.5 | 51.6 ± 10.5 | 71.9 ± 1.9 | 16.1 | 10.7 ± 4.7 | 0 | 2.5 ± 0.5 | 0 | 0.2 ± 0.3 | 0 | 96 ± 2.76 | 95.1 ± 7.02 | 166 ± 11.8 | 20.2 ± 1.21 | 
2 | 227 to 230 | COc1cc(/C=C/C(=O)c2ccc(/C=C/c3ccc([N+](=O)[O-])cc3)cc2)ccc1O [Hybrid 3c, (E)-3-(4-hydroxy-3-methoxyphenyl)-1-(4-((E)-4-nitrostyryl)phenyl)prop-2-en-1-one] | >100 | >15 |  |  | > 3000 | > 3000 |  |  |  |  |  |  |  |  | 27.5 ± 2 | > 200 | > 3000 | > 3000 | 
3 | 87 to 90 | COc1cc(/C=C/C(=O)c2ccc(/C=C/c3c(OC)cccc3OC)cc2)ccc1O [Hybrid 3g, (E)-1-(4-((E)-2,6-Dimethoxystyryl)phenyl)-3-(4-hydroxy-3-methoxyphenyl)prop-2-en-1-one] | 11.1 | 0.83 | 2.82 | 1.17 | 95 ± 1.67 | 32.4 ± 5.16 |  |  |  |  |  |  |  |  | 8.55 ± 2.47 | 39.1 ± 5.68 | 33.7 ± 4.2 | 27.6 ± 5.21 | 
4 | 49 to 51 | COc1cc(/C=C/c2ccc(C(=O)/C=C/c3ccc(O)c(OC)c3)cc2)cc(OC)c1 [Hybrid 3h, (E)-1-(4-((E)-3,5-Dimethoxystyryl)phenyl)-3-(4-hydroxy-3-methoxyphenyl)prop-2-en-1-one] | 2.06 | 0.93 | 1.60 | 1.08 | 97.4 ± 2.62 | 23.2 ± 4.07 |  |  |  |  |  |  |  |  | 47.2 ± 8.39 | 24.9 ± 1.65 | 61 ± 12.8 | 21.4 ± 3.29 | 
5 | 74 to 77 | COc1cc(/C=C/C(=O)c2ccc(/C=C/c3cc(OC)c(OC)c(OC)c3)cc2)ccc1O [Hybrid 3k, (E)-3-(4-Hydroxy-3-methoxyphenyl)-1-(4-((E)-3,4,5-trimethoxystyryl)phenyl)prop-2-en-1-one] | 0.84 | 0.34 | 3.65 |  | 74.6 ± 4.2 | 29.4 ± 2.29 | 56.1 ± 4 | 2.4 ± 0.7 | 12.1 | 0 | 1.9 ± 0.8 | 0 | 0.1 ± 0.1 | 0 | 88.5 ± 4.58 | 85.8 ± 1.27 | 20.4 ± 2.43 | 11.8 ± 1.2 | significant reduction in viability

The next lines start with the compound.

Row | SMILES | melting point [°C] | SI (selectivity index) ([1]; 24 h) | SI (selectivity index) ([1]; 48 h) | SI (selectivity index) ([2]; 24 h) | SI (selectivity index) ([2]; 48 h) | IC50 ([3]; 24 h) [µM] | IC50 ([3]; 48 h) [µM] | viability at 10 µM (SW620 cell line; SW-620, 48 h, day 2) [%] | viability at 160 µM (SW620 cell line; SW-620, 48 h, day 2) [%] | viability at 10 µM (SW620 cell line; SW-620, 96 h, day 4) [%] | viability at 160 µM (SW620 cell line; SW-620, 96 h, day 4) [%] | viability at 10 µM (SW620 cell line; SW-620, 144 h, day 6) [%] | viability at 160 µM (SW620 cell line; SW-620, 144 h, day 6) [%] | viability at 10 µM (SW620 cell line; SW-620, 192 h, day 8) [%] | viability at 160 µM (SW620 cell line; SW-620, 192 h, day 8) [%] | IC50 ([1]; SW480, 24 h, 24 h) [µM] | IC50 ([1]; SW480, 48 h, 48 h) [µM] | IC50 ([2]; 24 h) [µM] | IC50 ([2]; 48 h) [µM] | reduction in viability (SW620 cell line; SW620, after two days of treatment, concentrations higher than 10 µM)
6 | COc1cc(/C=C/C(=O)CC(=O)/C=C/c2ccc(O)c(OC)c2)ccc1O [Curcumin] |  | 0.24 | 0.40 | 0.12 | 1.63 |  |  |  |  |  |  |  |  |  |  |  |  |  |  | 
7 | COc1ccc(/C=C/c2ccc(C(=O)/C=C/c3ccc(O)c(OC)c3)cc2)cc1 [Hybrid 3b, (E)-3-(4-hydroxy-3-methoxyphenyl)-1-(4-((E)-4-methoxystyryl)phenyl)prop-2-en-1-one] | 187 to 190 |  |  |  |  |  |  |  |  |  |  |  |  |  |  |  |  |  |  | 
8 | COc1cc(/C=C/C(=O)c2ccc(/C=C/c3cccc(OC)c3OC)cc2)ccc1O [Hybrid 3d, (E)-1-(4-((E)-2,3-Dimethoxystyryl)phenyl)-3-(4-hydroxy-3-methoxyphenyl)prop-2-en-1-one] | 63 to 65 | 0.91 | 0.49 | 0.44 | 0.48 | 31 ± 2.93 | 12.4 ± 3.41 |  |  |  |  |  |  |  |  | 34.1 ± 3.92 | 25.2 ± 3.54 | 70.5 ± 3.8 | 26.1 ± 4.24 | 
9 | COc1ccc(OC)c(/C=C/c2ccc(C(=O)/C=C/c3ccc(O)c(OC)c3)cc2)c1 [Hybrid 3f, (E)-1-(4-((E)-2,5-Dimethoxystyryl)phenyl)-3-(4-hydroxy-3-methoxyphenyl)prop-2-en-1-one] | 47 to 51 | 1.33 | 0.27 | 2.36 | 0.86 | 112 ± 15.8 | 23.9 ± 4.01 |  |  |  |  |  |  |  |  | 84.4 ± 5.45 | 88.6 ± 1.84 | 47.4 ± 10.5 | 27.6 ± 4.99 | 
10 | COc1cc(/C=C/C(=O)c2ccc(/C=C/c3ccc(O)c(OC)c3)cc2)ccc1O [Hybrid 3j, (E)-3-(4-Hydroxy-3-methoxyphenyl)-1-(4-((E)-4-hydroxy-3-methoxystyryl)phenyl)prop-2-en-1-one] | 142 to 146 | 5.28 | 0.59 | 1.50 | 0.84 | 42.1 ± 4.85 | 24.3 ± 5.21 |  |  |  |  |  |  |  |  | 7.98 ± 1.53 | 41.1 ± 7.8 | 28.1 ± 4.27 | 28.8 ± 4.57 | 
11 | COc1cc(/C=C/C(=O)c2ccc(/C=C/c3cc(OC)c(O)c(OC)c3)cc2)ccc1O [Hybrid 3l, (E)-1-(4-((E)-4-Hydroxy-3,5-dimethoxystyryl)phenyl)-3-(4-hydroxy-3-methoxyphenyl)prop-2-en-1-one] | 86 to 88 | 1.42 | 0.48 | 2.63 | 0.83 | 90 ± 8.55 | 24.8 ± 5.53 |  |  |  |  |  |  |  |  | 63.5 ± 8.16 | 51.8 ± 5.85 | 34.2 ± 5.09 | 29.8 ± 3.68 | 
12 | O=c1[nH]cc(F)c(=O)[nH]1 [Hybrid 5-FU, 5-fluorouracil, reference compound] |  | 0.35 | 0.99 | 0.59 | 0.96 |  |  |  |  |  |  |  |  |  |  |  |  |  |  | 
13 | Oc1ccc(/C=C/c2cc(O)cc(O)c2)cc1 [Resveratrol] |  | 0.77 | 0.52 | 0.22 | 0.45 | 118 ± 8.54 | 64 ± 8.92 |  |  |  |  |  |  |  |  | 154 ± 10.6 | 123 ± 4.48 | 549 ± 38.5 | 143 ± 4.03 | 
